From ChEMBL document CHEMBL1141883 (J Med Chem, 2005)

Key:
[1] = molecular target: Glycogen synthase kinase-3 (Homo sapiens, UniProt P49840+P49841); assay: Inhibition of glycogen synthase kinase 3; assay type: protein assay
[2] = molecular target: Cyclin-dependent kinase 1/cyclin B (Homo sapiens, UniProt P06493); assay: Inhibition of cyclin-dependent kinase 1/cyclinB; assay type: protein-complex assay
[3] = molecular target: Cyclin-dependent kinase 6 (Homo sapiens, UniProt Q00534); assay: Inhibition of human cyclin-dependent kinase 6 complex with a virus-encoded cyclin from herpesvirus saimiri (Vcyclin)
[4] = molecular target: Cyclin-dependent kinase 5/CDK5 activator 1 (Homo sapiens, UniProt Q00535); assay: Inhibition of Cyclin-dependent kinase 5-p25nck5a; assay type: protein-complex assay
Cyclin-dependent kinase 5/CDK5 activator 1, sequence (Q00535 whole entry): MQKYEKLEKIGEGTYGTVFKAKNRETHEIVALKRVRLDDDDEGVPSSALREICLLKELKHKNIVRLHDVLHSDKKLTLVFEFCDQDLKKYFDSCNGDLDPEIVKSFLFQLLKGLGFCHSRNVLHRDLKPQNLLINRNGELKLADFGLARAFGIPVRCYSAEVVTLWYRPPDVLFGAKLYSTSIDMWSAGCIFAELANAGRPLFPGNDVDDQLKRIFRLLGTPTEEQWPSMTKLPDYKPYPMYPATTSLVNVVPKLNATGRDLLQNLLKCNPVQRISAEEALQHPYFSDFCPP
Cyclin-dependent kinase 5/CDK5 activator 1, sequence (Q15078 whole entry, further chain): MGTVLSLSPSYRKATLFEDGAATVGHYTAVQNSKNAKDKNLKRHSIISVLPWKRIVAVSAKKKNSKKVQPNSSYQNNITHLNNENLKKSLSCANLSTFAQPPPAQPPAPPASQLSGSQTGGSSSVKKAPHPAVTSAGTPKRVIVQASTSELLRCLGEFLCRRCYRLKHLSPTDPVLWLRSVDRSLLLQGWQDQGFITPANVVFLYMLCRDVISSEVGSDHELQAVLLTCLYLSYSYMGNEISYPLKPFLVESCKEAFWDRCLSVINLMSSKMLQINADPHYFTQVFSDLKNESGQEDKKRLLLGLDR

Cyclin-dependent kinase 6, sequence (Q00534 whole entry): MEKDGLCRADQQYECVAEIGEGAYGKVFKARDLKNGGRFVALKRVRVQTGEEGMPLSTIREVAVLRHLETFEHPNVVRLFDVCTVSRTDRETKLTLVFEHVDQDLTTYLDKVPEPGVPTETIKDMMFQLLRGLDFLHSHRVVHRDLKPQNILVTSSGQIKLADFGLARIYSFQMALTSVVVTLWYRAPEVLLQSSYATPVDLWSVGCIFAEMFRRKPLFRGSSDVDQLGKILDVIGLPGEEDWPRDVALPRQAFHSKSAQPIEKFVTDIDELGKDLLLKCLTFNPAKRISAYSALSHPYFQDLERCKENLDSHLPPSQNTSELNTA

Structure (SMILES) | IC50 [1] | IC50 [2] | IC50 [3] | IC50 [4]
O=c1cc(-c2ccc(O)cc2)oc2cc(O)cc(O)c12 [APIGENIN] | 1.4 µM | 4 µM | 1.7 µM | 1.6 µM
O=c1cc(-c2ccccc2)oc2cc(O)cc(O)c12 [CHRYSIN] | 7.2 µM | 7.1 µM | 6 µM | 3.1 µM
O=c1c(O)c(-c2ccc(O)c(O)c2)oc2cc(O)ccc12 [FISETIN] | 0.42 µM | 0.79 µM | – | 0.57 µM
O=c1c(O)c(-c2ccc(O)cc2)oc2cc(O)cc(O)c12 [KAEMPFEROL] | 3.5 µM | 41 µM | 22 µM | 51 µM
O=c1cc(-c2ccc(O)c(O)c2)oc2cc(O)cc(O)c12 [LUTEOLIN] | 0.8 µM | – | > 300 µM | 3.8 µM
O=c1c(O)c(-c2ccc(O)c(O)c2)oc2cc(O)cc(O)c12 [QUERCETIN] | 2.1 µM | 75 µM | 25 µM | –
